27 compounds from US8759363B2, “Quinazoline-based T cell proliferation inhibitors” (Yissum Research Development Company of the Hebrew …, priority 2010, dated 2014) can be followed below.

SMILES strings stand for the structures.

Data set [1] relates to Jurkat cells. Description: Jurkat cell proliferation, BrdU incorporation. The settings on record: for IC50: Homo sapiens, Jurkat, BrdU uptake, nM ± SD, read-out: IC50 Jurkat cells proliferation inhibition; for fold increase in the IC50 of Jurkat cell proliferation compared with compound 2: relative to compound 2. The class given is cell-based, human. Here is the method: (§1) Cells were depleted of fetal calf serum (FCS) for 12 hours. They were then stimulated to proliferate by addition of ConA (10 μg/ml) for PBMC from healthy individuals and for Jurkat cells, FCS (10%) for HEK293 and A375 cells, PDGF (30 ng/ml) for NIH 3T3 cells, and EGF (30 ng/ml) for MDA-MB-231, Cells (1×10^5) were cultured in 96-well plates for 3 days in the presence or absence of inhibitors at the concentrations specified in the text. Each condition was tested in duplicate wells.
(§2) Proliferation was assessed by BrdU incorporation using a colorimetric ELISA kit (Roche, Germany). Subsequent to labeling with 10 μM BrdU, DNA was denatured and the cells were incubated with anti-BrdU-POD, prior to the addition of colorimetric substrate (TMB). The reaction product was quantified by measuring absorbance at 450 nm in an ELISA plate reader (ELx800 BIO-TEK Instruments Inc.).
(§3) Since we were not prejudiced towards any specific protein kinase, we used a biological assay for T cell proliferation. We tested our libraries for inhibition of proliferation of PBMC and Jurkat cells (Table 3). Cell proliferation was measured by BrdU uptake. […] PBMC cells were stimulated by a non-specific T cell mitogen, Concanavalin A (ConA). All of the compounds that were tested inhibited proliferation at micromolar or sub-micromolar concentrations.
In general terms: Incorporation of labelled thymidine or its analogues reports DNA synthesis.

The test system of data set [2] is PBMC. Description: PBMC proliferation, BrdU incorporation. The class given is cell-based, human. The settings on record: for IC50: Homo sapiens, ConA-stimulated PBMC, BrdU uptake, nM ± SD, read-out: IC50 PBMC proliferation inhibition; for fold increase in the IC50 of PBMC proliferation compared with compound 2: relative to compound 2. The protocol: Blood samples were taken from healthy donors and loaded on a Ficoll density gradient to purify the PBMC population. T cells were purified by human anti-CD3 using an autoMACS instrument (Miltenyi Biotec, Bergisch-Gladbach, Germany), according to the manufacturer's instructions. The identity of T cells was confirmed by flow cytometry, as they stained positive for CD3. Cells were stimulated with ConA (10 μg/ml), ODN2006 (0.5 μg/ml; Enzo Life Sciences), or LPS (50 μg/ml; Sigma-Aldrich, Steinheim, Germany), for 72 h in the presence of the inhibitor, and their proliferation was measured in the BrdU incorporation assay as will be later described.
as §1, §2, §3

As for `Oc1ccc(Nc2nc(-c3cc(O)c(O)c(O)c3)nc3ccccc23)cc1` [Compound 23, 5-(4-(4-hydroxyphenylamino)quinazolin-2-yl)benzene-1,2,3-triol], the IC50 in data set [1] was 1120 ± 0.28 nM; in data set [2], 970 ± 0.84 nM.
As a reminder, the melting point is the temperature, or range, at which the solid turns liquid. Regarding `Oc1cc(-c2nc(NCc3ccc(F)c(F)c3)c3ccccc3n2)cc(O)c1O` [Compound 31, 5-(4-(3,4-difluorobenzylamino)quinazolin-2-yl)benzene-1,2,3-triol], the melting point was > 250 °C. The IC50 in data set [1] was found to be 600 ± 0.21 nM. Besides, the IC50 in data set [2] turned out to be 280 ± 0.04 nM.
As for `COc1cc(-c2nc(Nc3ccc(OC(F)(F)F)cc3)c3ccccc3n2)cc(OC)c1OC` [Compound 7, N-(4-(trifluoromethoxy)phenyl)-2-(3,4,5-trimethoxyphenyl) quinazolin-4-amine], the melting point is > 250 °C. For the same compound, in data set [1], the IC50 was 180 ± 0.11 nM and the “fold increase in the IC50 of Jurkat cell proliferation compared with compound 2” value amounted to 6 fold. For the same compound, in data set [2], the IC50 stood at 400 nM and the “fold increase in the IC50 of PBMC proliferation compared with compound 2” value is 5 fold.
`COc1cc(-c2nc(Nc3ccc4cn[nH]c4c3)c3ccccc3n2)cc(OC)c1OC` [Compound 15, N-(1H-indazol-6-yl)-2-(3,4,5-trimethoxyphenyl) quinazolin-4-amine]: the melting point is > 250 °C. For the same compound, the IC50 in data set [1] stood at 600 ± 0.14 nM. Besides, in data set [2], the IC50 was determined as 450 ± 0.07 nM.
The corresponding values for `Oc1cc(-c2nc(Nc3ccccc3)c3ccccc3n2)cc(O)c1O` [Compound 20, 5-(4-(phenylamino)quinazolin-2-yl)benzene-1,2,3-triol] are > 250 °C, 5500 ± 3.5 nM and 650 ± 0.49 nM.
For the compound `Oc1cc(-c2nc(NCc3ccccc3)c3ccccc3n2)cc(O)c1O` [Compound 29, 5-(4-(benzylamino)quinazolin-2-yl)benzene-1,2,3-triol], the melting point is > 250 °C. For the same compound, the IC50 in data set [1] came out at 950 ± 0.07 nM. Besides, in data set [2], the IC50 was determined as 7000 ± 3.5 nM.
The like results for `COc1ccc(Nc2nc(-c3cc(OC)c(OC)c(OC)c3)nc3ccccc23)cc1` [Compound 5, N-(4-methoxyphenyl)-2-(3,4,5-trimethoxyphenyl)quinazolin-4-amine] were, in that order, > 250 °C, 1100 ± 0.14 nM and 500 ± 0.14 nM.
Turning to `COc1cc(-c2nc(NCc3ccc(Cl)c(Cl)c3)c3ccccc3n2)cc(OC)c1OC` [Compound 13, N-(3,4-dichlorobenzyl)-2-(3,4,5-trimethoxyphenyl)quinazolin-4-amine], the results for the IC50 in data set [1] and in data set [2] were 730 ± 0.39 nM and 300 ± 0.14 nM, respectively.
For `COc1cc(-c2nc(Nc3ccc4nc[nH]c4c3)c3ccccc3n2)cc(OC)c1OC` [Compound 19, N-(3H-benzoimidazol-5-yl)-2-(3,4,5-trimethoxyphenyl)quinazolin-4-amine], the melting point was > 250 °C. Besides, in data set [1], the IC50 came to 1500 ± 0.71 nM. Besides, in data set [2], the IC50 was 430 ± 0.11 nM.
Regarding `COc1cc(-c2nc(Nc3ccccc3CO)c3ccccc3n2)cc(OC)c1OC` [Compound 9, (2-(2-(3,4,5-trimethoxyphenyl)quinazolin-4-ylamino)phenyl)methanol], the melting point is > 250 °C. Also, the IC50 in data set [1] came to 580 ± 0.18 nM. Moreover, the IC50 in data set [2] came to 850 ± 0.07 nM.
As to `Oc1cc(-c2nc(NCc3ccc(Cl)c(Cl)c3)c3ccccc3n2)cc(O)c1O` [Compound 32, 5-(4-(3,4-dichlorobenzylamino)quinazolin-2-yl)benzene-1,2,3-triol], the melting point was > 250 °C. Also, the IC50 in data set [1] came to 3640 ± 0.54 nM. Also, in data set [2], the IC50 amounted to 2600 ± 0.24 nM.
As to `Oc1cc(-c2nc(Nc3ccc(Cl)cc3)c3ccccc3n2)cc(O)c1O` [Compound 27, 5-(4-(4-chlorophenylamino)quinazolin-2-yl)benzene-1,2,3-triol], the melting point was > 250 °C. In data set [1], the IC50 turned out to be 4250 ± 5.3 nM. In data set [2], the IC50 stood at 550 ± 0.21 nM.
Take `COc1cc(-c2nc(Nc3ccc(C)cc3C)c3ccccc3n2)cc(OC)c1OC` [Compound 3, N-(2,4-dimethylphenyl)-2-(3,4,5-trimethoxyphenyl)quinazolin-4-amine]: the melting point is > 250 °C. In data set [1], the IC50 is 2600 ± 3.39 nM and the “fold increase in the IC50 of Jurkat cell proliferation compared with compound 2” value worked out at 10 fold. Also, in data set [2], the IC50 was found to be 750 ± 0.05 nM and the “fold increase in the IC50 of PBMC proliferation compared with compound 2” value is listed as 10 fold.
Turning to `COc1cc(-c2nc(NCc3ccccc3)c3ccccc3n2)cc(OC)c1OC` [Compound 10, N-benzyl-2-(3,4,5-trimethoxyphenyl)quinazolin-4-amine], the melting point was > 250 °C. Besides, the IC50 in data set [1] was found to be 600 ± 0.14 nM. The IC50 in data set [2] is 3250 ± 2.47 nM.
The corresponding values for `COc1cc(-c2nc(Nc3ccc(O)cc3)c3ccccc3n2)cc(OC)c1OC` [Compound 4, 4-(2-(3,4,5-trimethoxyphenyl)quinazolin-4-ylamino)phenol] are > 250 °C, 230 ± 0.04 nM and 300 ± 0.14 nM.
The corresponding values for `OCc1ccccc1Nc1nc(-c2cc(O)c(O)c(O)c2)nc2ccccc12` [Compound 28, 5-(4-(2-(hydroxymethyl)phenylamino)quinazolin-2-yl)benzene-1,2,3-triol] are > 250 °C, 650 ± 0.21 nM and 900 ± 0.14 nM.
Regarding `Oc1cc(-c2nc(Nc3ccc4nc[nH]c4c3)c3ccccc3n2)cc(O)c1O` [Compound 38, 5-(4-(3H-benzo[d]imidazol-5-ylamino)quinazolin-2-yl)benzene-1,2,3-triol], the melting point was > 250 °C. Further, the IC50 in data set [1] was determined as 2570 ± 0.82 nM. In data set [2], the IC50 was 4340 ± 0.74 nM.
Turning to `COc1ccc(CNc2nc(-c3cc(O)c(O)c(O)c3)nc3ccccc23)cc1` [Compound 33, 5-(4-(4-methoxybenzylamino)quinazolin-2-yl)benzene-1,2,3-triol], the melting point was > 250 °C. In data set [1], the IC50 came out at 5430 ± 0.76 nM. Further, the IC50 in data set [2] came to 3260 ± 0.49 nM.
For `COc1ccc(CNc2nc(-c3cc(OC)c(OC)c(OC)c3)nc3ccccc23)cc1` [Compound 14, N-(4-methoxybenzyl)-2-(3,4,5-trimethoxyphenyl)quinazolin-4-amine], the IC50 amounted to 1100 ± 0.14 nM in data set [1] and 500 ± 0.14 nM in data set [2].
In the case of `COc1ccc(Nc2nc(-c3cc(O)c(O)c(O)c3)nc3ccccc23)cc1` [Compound 24, 5-(4-(4-methoxyphenylamino)quinazolin-2-yl)benzene-1,2,3-triol], the melting point was > 250 °C. In addition, the IC50 in data set [1] came out at 550 ± 0.21 nM. For the same compound, the IC50 in data set [2] amounted to 500 ± 0.14 nM.
The like results for `Oc1cc(-c2nc(Nc3ccc4c(c3)OCO4)c3ccccc3n2)cc(O)c1O` [Compound 37, 5-(4-(benzo[d][1,3]dioxol-5-ylamino)quinazolin-2-yl)benzene-1,2,3-triol] were, in that order, > 250 °C, 800 ± 0.28 nM and 5500 ± 6.36 nM.
With `Oc1cc(-c2nc(Nc3ccc4[nH]ncc4c3)c3ccccc3n2)cc(O)c1O` [Compound 35, 5-(4-(1H-indazol-5-ylamino)quinazolin-2-yl)benzene-1,2,3-triol], the melting point was > 250 °C. Further, the IC50 in data set [1] came to 710 ± 0.87 nM. The IC50 in data set [2] amounted to 780 ± 0.67 nM.
The corresponding values for `Cc1ccc(Nc2nc(-c3cc(O)c(O)c(O)c3)nc3ccccc23)c(C)c1` [Compound 22, 5-(4-(2,4-dimethylphenylamino)quinazolin-2-yl)benzene-1,2,3-triol] are > 250 °C, 3700 ± 4.67 nM and 730 ± 0.04 nM.
Regarding `Oc1cc(-c2nc(Nc3ccc4cn[nH]c4c3)c3ccccc3n2)cc(O)c1O` [Compound 34, 5-(4-(1H-indazol-6-ylamino)quinazolin-2-yl)benzene-1,2,3-triol], the values for the IC50 in data set [1] and in data set [2] were 690 ± 0.3 nM and 500 ± 0.14 nM, respectively.
On to `CCCCCCCCOc1ccc(Nc2nc(-c3cc(O)c(O)c(O)c3)nc3ccccc23)cc1` [Compound 25, 5-(4-(4-(octyloxy)phenylamino)quinazolin-2-yl)benzene-1,2,3-triol], for which the melting point is > 250 °C. Also, the IC50 in data set [1] was 4250 ± 1.3 nM. Besides, the IC50 in data set [2] is 4530 ± 0.31 nM.
As for `COc1cc(-c2nc(NCCc3c[nH]c4ccccc34)c3ccccc3n2)cc(OC)c1OC` [Compound 17, N-(2-(1H-indol-3-yl)ethyl)-2-(3,4,5-trimethoxyphenyl)quinazolin-4-amine], the melting point is > 250 °C. Moreover, the IC50 in data set [1] turned out to be 700 ± 0.35 nM. For the same compound, the IC50 in data set [2] stood at 750 ± 0.21 nM.
Regarding `CCCCCCCCOc1ccc(Nc2nc(-c3cc(OC)c(OC)c(OC)c3)nc3ccccc23)cc1` [Compound 6, N-(4-(octyloxy)phenyl)-2-(3,4,5-trimethoxyphenyl)quinazolin-4-amine], the IC50 in data set [1] is 850 ± 0.07 nM; in data set [2], 2400 ± 2.26 nM.
